Data set [1] can be described thus: Toxicity analysis by uptake of neutral red dye in 2.2.15 cell cultures. The settings on record: human, Cytotoxity IC50 ± SD, Table 1; neutral red dye uptake; 2.2.15 cells. The protocol:
(§1) Toxicity analyses were performed in order to assess whether any observed antiviral effects were due to a general effect on cell viability. The method used was based on the uptake of neutral red dye, a standard and widely used assay for cell viability in a variety of virus-host systems, including HSV (herpes simplex virus) and HIV. The test compounds were used in the form of 40 mM stock solutions in DMSO (frozen on dry ice). Daily aliquots of the test samples were made and frozen at −20° C. so that each individual aliquot would be subjected to a single freeze-thaw cycle. The daily test aliquots were thawed, suspended into culture medium at room temperature and immediately added to the cell cultures. The compounds were tested at 0.01 to 10 μM for antiviral activity. The compounds were tested for toxicity at concentrations from 1 to 300 μM.
(§2) Toxicity analyses were performed in 96-well flat bottomed tissue culture plates. Cells for the toxicity analyses were cultured and treated with test compounds with the same schedule as used for the antiviral evaluations. Each compound was tested at 4 concentrations, each in triplicate cultures. Uptake of neutral red dye was used to determine the relative level of toxicity. The absorbance of internalized dye at […] (A510) was used for the quantitative analysis. Values are presented as a percentage of the average A510 values (± standard deviations) in 9 separate cultures of untreated cells maintained on the same 96-well plate as the test compounds.

Data set [2] has as its system 2.2.15 cells (HepG2 cells transformed with hepatitis virion). The data set is described as above. The settings on record: read-out: Cytotoxity IC50 ± SD; Table 1; neutral red dye uptake; 2.2.15 cells. The protocol: as §1, §2
For data set [3], the system named is Hepatitis B virus. The following applies: previous studies, Korba and Gerin 1992; cited from earlier work.
Data set [4] relates to Hepatitis B virus. As to the kind of experiment: Inhibition of HBV replication in transfected HepG-2 (2.2.15) cells (HBV virion DNA and replicative intermediates, blot hybridization). It counts as cell-based. The settings on record: for EC90: replicative intermediates (intracellular DNA); for EC90 / EC50: transfected HEPG-2 (2.2.15) cells; for EC50: extracellular DNA. The protocol: The assay used herein to evaluate the ability of the disclosed compounds to inhibit the replication of HBV is described in detail in Korba and Gerin, Antiviral Res. 19: 55-70 (1992). […] The toxicity and anti-HBV activity of (−)-β-L-2-hydroxymethyl-5-(5-fluorocytosin-1-yl)-1,3-oxathiolane ((−)-β-L-FTC) and β-D-2′,3′-dideoxycytidine (β-D-ddC) are included as controls. The other compounds disclosed herein can be evaluated similarly.
The antiviral evaluations were performed on two separate passages of cells, two cultures per passage (4 cultures total). All wells, in all plates, were seeded at the same density and at the same time.
(Korba and Gerin, Antiviral Res. 19: 55-70, 1992). The levels of integrated HBV DNA in each cellular DNA preparation (which remain constant on a per cell basis in these experiments) were used to calculate the levels of intracellular HBV DNA forms, thereby eliminating technical variations inherent in the blot hybridization assays.
as §1

Data set [5] relates to 2.2.15 cells (HepG2 cells transformed with hepatitis virion). The settings on record: typically observed, Korba and Gerin 1992; read-out: Concentration giving a 2-fold reduction in dye uptake; cited from earlier work.

Values joined by “and” are separate entries in the source; they are usually repeats but may differ in a detail not shown here. Equal entries are not always repeated. Where two headings read alike, the source gives them in different places.

For the compound `Nc1ccn([C@H]2CC[C@@H](CO)O2)c(=O)n1` [β-D-DDC, β-D-2′,3′-dideoxycytidine, reference compound], the IC50 in data set [1] is 216 ± 22 µM; in data set [2], 219 µM; in data set [5], 150 to 190 µM. Further, in the data set on Hepatitis B virus [3], the “Concentration giving a 90% depression of HBV RI” value is 9 to 12 µM. For the same compound, the “Inhibition of HBV replication (depression of HBV virion DNA and HBV RI), in words” value in the data set with Hepatitis B virus [4] (2.2.15 cells) is listed as “significant depressions of HBV DNA replication”. Further, the EC90 in the data set on Hepatitis B virus [4] (Hepatitis B virus, HepG2 2.2.15, read-out: HBV RI EC90 ± SD, Table 1) was determined as 11 ± 2 µM; in the data set with Hepatitis B virus [4] (read-out: HBV RI EC90 ± SD, Table 1), 12 ± 2.4 µM. In addition, the EC50 in the data set on Hepatitis B virus [4] (Hepatitis B virus, HepG2 2.2.15, read-out: HBV viron EC50 ± SD, Table 1) stood at 1.5 ± 0.7 µM; with Hepatitis B virus [4] (read-out: HBV viron EC50 ± SD, Table 1), 1.3 µM. Besides, the “Selectivity Index IC50/EC90 RI” value in the data set on Hepatitis B virus [4] (Table 1, cytotoxicity IC50 / RI EC90) was 20 and 18.

The EC90 is the concentration at which the effect reaches the 90% level. By EC50 is commonly meant the concentration at which the effect is half-maximal.
